Data published in patent US20100267629A1, “Enterostatin as Therapeutic Agent for Hypoglycemia” (Board of Supervisors of Louisiana State University and …, priority 2006, published 2010).

Columns and labels:
[1] = tested on: C57B1/6 male mice; test: Blood glucose response to insulin; format: in vivo, mouse
Procedure: Animals: C57B1/6 male mice were purchased from The Jackson Laboratory (Bar Harbor, Me.) at 6 weeks of age. The mice were initially housed in groups of three in acrylic cages in a room with a 12-hour light/dark cycle and with controlled temperature (22 to 23° C.) and with free access to water. The mice were fed a high fat diet (4.78 kcal/g, 56% energy as fat; Research Diets Inc, Brunswick, N.J.). The composition of the diet has been previously described (15). Body weights were measured three time per week. At 8 weeks of age, the mice were switched to single housing.
Peptide Injections: Enterostatin was dissolved in 0.1 ml saline (0.9% NaCl w/v), and given as a single dose of either 5 μg or 25 μg/mouse. Either enterostatin or saline (control) was injected intraperitoneally. In the experiments involving insulin, insulin (0.75 mU/g body weight) or saline (0.1 ml/10 g body weight; control) was injected intraperitoneally.
Enterostatin Effect on Blood Glucose Response to Insulin. To test the effect of enterostatin on the blood glucose response to exogenous insulin, mice were fasted for 4 hours, and insulin (0.75 mU/gm body weight) or saline (0.1 ml/10 gm body weight) was injected intraperitoneally at time zero. Enterostatin (5 or 25 ug/mouse in 0.1 ml saline vehicle) or saline vehicle was also injected intraperitoneally (ip) at time zero. Blood samples were taken from the tail vein immediately before the injections, and then at 15, 30, 45 and 60 minutes afterwards. The samples were assayed for glucose on a glucometer (Ascencia Elite XL, Bayer, Pittsburgh, Pa.).

[2] = tested on: AMPK; test: pAMPK Western blot in HepG2 cells, 15 min incubation; format: cell-based, human
Procedure: Human liver cells (HepG2 cell line, American Type Culture Collection, Manassas, Va.) were grown and maintained in Dulbecco's modified eagle's medium (Gibco, Carlsbad, Calif.) containing 10% fetal bovine serum, penicillin (100 I.U./ml), and streptomycin (100 μg/ml). The cells were then incubated for 15 min with 5 mM glucose and various concentrations of enterostatin (0.003, 0.01, 0.1, 1, and 3 μM) and/or of its antagonist β-casomorphin (BCM) (0.003, 0.01, 0.1, 1, and 3 μM). After incubation, the cells were lysed and the cytosolic proteins subjected to Western blot analysis for AMPK and pAMPK. The results for pAMPK activity are shown in FIG. 5A (enterostatin) and FIG. 5B (BCM). […] This effect was blocked by the presence of an antibody to the enterostatin receptor (anti F1-ATPase beta subunit).

[3] = tested on: AMPK; test: pAMPK Western blot in HepG2 cells, 60 min incubation; format: cell-based, human; conditions: HepG2, one hour incubation
Procedure: In a second experiment, human liver cells (HepG2 cell line, American Type Culture Collection, Manassas, Va.) were grown and maintained in Dulbecco's modified eagle's medium (Gibco, Carlsbad, Calif.) containing 10% fetal bovine serum, penicillin (100 I.U./ml), and streptomycin (100 μg/ml). The cells were then incubated for 60 min with 5 mM glucose and various concentrations of enterostatin (0.001, 0.01, 0.03, 0.1, 1.0 μM). After incubation, the cells were lysed and the cytosolic proteins subjected to Western blot analysis for pAMPK and PKARIIβ.

[4] = target: brain membrane preparation; conditions: low affinity binding; cited from earlier work
[5] = tested on: SK-N-MC neuroepithelioma cells; conditions: cited from earlier work
[6] = tested on: rabbits; conditions: single-choice diet; cited from earlier work
[7] = tested on: sheep; conditions: single-choice diet; cited from earlier work
[8] = tested on: islet cells; conditions: cited from earlier work
[9] = tested on: galanin receptors; conditions: cited from earlier work
[10] = target: kappa-opioid receptors (Homo sapiens, UniProt P41145); conditions: cited from earlier work
Sequence of kappa-opioid receptors (P41145 whole entry): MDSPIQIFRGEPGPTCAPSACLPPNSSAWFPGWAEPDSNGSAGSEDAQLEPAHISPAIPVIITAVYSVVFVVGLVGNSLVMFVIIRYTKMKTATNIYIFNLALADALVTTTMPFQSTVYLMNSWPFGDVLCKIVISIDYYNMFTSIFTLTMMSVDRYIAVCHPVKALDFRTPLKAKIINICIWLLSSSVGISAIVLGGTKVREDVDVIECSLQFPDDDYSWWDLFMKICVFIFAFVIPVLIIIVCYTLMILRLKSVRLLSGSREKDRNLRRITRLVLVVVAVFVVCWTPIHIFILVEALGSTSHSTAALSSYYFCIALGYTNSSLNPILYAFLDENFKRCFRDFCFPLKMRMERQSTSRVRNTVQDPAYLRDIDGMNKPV

[11] = target: T1, cholecystokinin A receptors (Homo sapiens, UniProt P32238); conditions: cited from earlier work
T1 sequence (P32238 1-428): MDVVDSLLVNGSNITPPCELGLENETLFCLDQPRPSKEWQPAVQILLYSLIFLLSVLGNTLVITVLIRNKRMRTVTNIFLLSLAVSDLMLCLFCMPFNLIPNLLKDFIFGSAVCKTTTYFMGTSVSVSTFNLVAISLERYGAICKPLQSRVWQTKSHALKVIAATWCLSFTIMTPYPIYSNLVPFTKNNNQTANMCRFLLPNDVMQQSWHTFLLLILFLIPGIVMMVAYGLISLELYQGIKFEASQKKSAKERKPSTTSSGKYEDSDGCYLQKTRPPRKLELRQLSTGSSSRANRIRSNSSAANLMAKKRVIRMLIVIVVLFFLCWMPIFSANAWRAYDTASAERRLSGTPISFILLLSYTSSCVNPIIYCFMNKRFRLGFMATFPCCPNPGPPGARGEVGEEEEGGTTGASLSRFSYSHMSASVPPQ

Enterostatin: aminoterminal pentapeptide of procolipase released when procolipase is converted into colipase (VPDPR; printed: Val-Pro-Asp-Pro-Arg)
Blood glucose level versus zero-time level after insulin ([1]; 5 μg/mouse ip, at 60 min): had not returned to zero-time levels
Time for which blood glucose is increased after injection ([1]; conclusion from insulin response test): ≥ 30 min
Delay of initial fall in blood glucose in response to insulin ([1]; higher dose (25 μg/mouse) ip): 30 min
Blood glucose level versus zero-time level after insulin ([1]; higher dose (25 μg/mouse) ip, 45 to 60 min): remained below the zero-time level
Effect on pAMPK in presence of antibody anti F1-ATPase beta subunit ([2]; HepG2, 15 min, 5 mM glucose): blocked
AMPkinase activity shown by pAMPK ([2]; HepG2, 15 min, 5 mM glucose, 0.003-3 μM): inhibited AMPkinase
β-casomorphin stimulation of pAMPK levels ([2]; HepG2, enterostatin 0.01, 0.1 and 1.0 uM with β-casomorphin): reversed dose-dependently
Dose of peak effect on pAMPK [3]: 0.01 μM
pAMPK levels ([3]; 5 mM glucose): increase in pAMPK levels
Kd [4]: 230 nM
Kd [5]: 40 nM
Food intake [6]: reduce food intake
Food intake [7]: reduce food intake
Insulin secretion stimulated by glybenclamide ([8]; glybenclamide 5.0 and 10 μM): inhibited insulin secretion
Intracellular cyclic AMP content ([8]; increase produced by U50,488 100 nM): reduced the increase in intracellular cyclic AMP content
Insulin secretion ([8]; islets, 16.7 mM glucose, 10^−9 to 10^−5 M, dose-dependent): inhibited insulin secretion
Doses inhibiting insulin secretion ([8]; isolated pancreatic islets): 10^−10 to 10^−6 M
Insulin secretion stimulated by U50,488 ([8]; kappa-opioid agonist U50,488 100 nM): inhibited insulin secretion
Insulin secretion stimulated by TPA ([8]; phorbol 12-myristate-13-acetate 50 and 100 nM): inhibited insulin secretion
Binding [9]: not to bind
Binding [10]: not to bind
Binding [11]: not to bind
